Where no end group is shown, it is not given here. The star is where a group is joined. Octanoyl = CCCCCCCC(=O)*
Experiments:
Type in all cases: in vivo, rat
[1] = tested on: Bax; assay: Western blot of jejunal Bax protein; details: jejunum, Day 7 after 10 Gy WBI; slightly elevated in vehicle
Description: (§1) Animal model of whole body irradiation. Rats were exposed to whole body irradiation (WBI) of 10 Gray (Gy) using a Gammacell® 1000 Irradiator (Atomic Energy of Canada Ltd) [radiation source: Cesium-137 (^137Cs)] delivered at a dose rate of about 2.5 GY/min. The animals were sedated with intra-peritoneal pentobarbital (40 mg/kg BW) prior to irradiation. During radiation, the container rotated continuously in front of the radiation source for even exposure. The animals were then returned to their cages, and food and water were provided.
(§2) Blood and Tissue Collection after WBI. Rats exposed to 10 Gy WBI were treated with 20 nmol/rat human ghrelin once a day for 6 days starting at 24 h after radiation. At the 7th day, rats were euthanized, and blood, liver and the small intestine were removed under sterile conditions. […]
(§3) Western blot analysis. […] After overnight incubation with the primary antibodies at 4° C., the membranes were washed with TBS-T Immunoreactive bands were detected using HRP-linked secondary antibody (Southern Biotech, Birmingham, Ala.) and the Enhanced Chemiluminescence (ECL) Western blot detection kit (Amersham, Piscataway, N.J.). The immunoblots were exposed to X-ray film and analyzed with the NIH Image J analysis system. […]

[2] = tested on: ICAM-1; assay: Jejunal ICAM-1 mRNA expression by real time PCR; details: jejunum, Day 7 after 10 Gy WBI; vehicle increased by 69%
Description: as §1
(§4) Blood and Tissue Collection after WBI. Rats exposed to 10 Gy WBI were treated with 20 nmol/rat human ghrelin once a day for 6 days starting at 24 h after radiation. At the 7th day, rats were euthanized, and blood, liver and the small intestine were removed under sterile conditions. The blood was allowed to clot and following centrifugation, the serum was transferred into pyrogenic free sterile tubes, and stored at −80° C. until further analysis. Liver (0.25 g) was snap-frozen in liquid nitrogen and stored at −80° C. for subsequent bacterial translocation analysis. Small intestine, 10-15 cm of the ileum, was harvested for gut permeability studies, 10 cm of jejunum was collected for histopathology, and the remaining 10 cm jejunal segment each was collected for RNA and protein analyses.
Total RNA extraction and real time PCR. […]

[3] = Percent body weight change after WBI; details: 10 Gy WBI rats; treatment starting at 24 h; 30 day period
Description: as §1
(§5) Survival study. To assess the survival benefits of human ghrelin, animals were exposed to 10 Gy WBI and treated with human ghrelin (20 nmol/rat) subcutaneously once a day, with the first dose given either at 24 h or 48 h after WBI, for 6 days and observed for 30 days, and the survival recorded. The surviving animals beyond 30 days were then euthanized. Rats in the survival study were monitored twice daily and weighed once a day during the 30 day survival period. Net weight change was calculated as: % Weight Change ((weight at each day−weight at day 0)/weight at day 0)×100.

[4] = tested on: serum glucose; assay: Serum glucose level after WBI; details: Day 7 after 10 Gy WBI; WBI reduced it by 30%
Description: as §1
as §4, with “Small intestine, 10-15 cm of the ileum, was harvested for gut permeability studies, 10 cm of jejunum was collected for histopathology, and the remaining 10 cm jejunal segment each was collected for RNA and protein analyses.” left out
Serum glucose and albumin levels. Serum levels of glucose and albumin were determined using Liquid Glucose Hexokinase Reagent Set and Albumin Reagent Set (Pointe Scientific, Inc.) respectively according to manufacturer's instructions.

[5] = tested on: rats exposed to 10 Gy WBI; assay: Survival study after whole body irradiation (WBI); details: 10 Gy WBI rats, 30 day observation, vehicle 30%
Description: Experimental animals. Male Sprague-Dawley (SD) rats (250-350 g) purchased from Charles River Laboratories (Wilmington, Mass., USA) were used. The rats were housed in a temperature-controlled room on a 12-h light/dark cycle and fed on a standard Purina rat chow diet. Animal experimentation was carried out in accordance with the Guide for the Care and Use of Laboratory Animals. This project was approved by the Institutional Animal Care and Use Committee (IACUC) of the Feinstein Institute for Medical Research.
Animal model of whole body irradiation. […]
as §5, with “The surviving animals beyond 30 days were then euthanized.” left out
Statistical analysis. All data are expressed as mean±SE and analyzed by one way analysis of variance (ANOVA) and compared using Student Newman Keul's test for multiple comparisons. […]

[6] = tested on: pAkt; assay: Western blot of jejunal pAkt expression; details: jejunum, Day 7 after 10 Gy WBI; versus vehicle
Description: as §1, §2, §3

Q: For “ghrelin (GSS(Octanoyl)FLSPEHQRVQQRKESKKPPAKLQPR; listed as Homo sapiens) [human ghrelin]”, which Bax protein [1] is on record?
A: remain same as sham

Q: What about the “ICAM-1 mRNA expression, inhibition from the vehicle levels” value [2] of the same substance?
A: 51%

Q: And the “percent body weight change” value [3]?
A: consistent increase in the body weight

Q: What about the serum glucose [4] of the same substance?
A: restored to near Sham levels

Q: And the survival rate ([5]; 20 nmol/rat s.c. once a day for 6 days starting at 24 h after WBI)?
A: 63%

Q: What about the survival rate ([5]; 20 nmol/rat s.c. once a day for 6 days, treatment initiated at 48 h after WBI) of the same substance?
A: 61%

Q: And the “intestinal pAkt expression” value [6]?
A: further significantly increased
